assay: Human HepG2 cell viability assay in 384 well format; type: toxicity, cell-based; set-up: dose 125 nL, time 70.5 hour; cytotoxicity at 70.5 h: concentration not given beside the values; conditions: HepG2 cells, read-out: Inhibition

Structure (SMILES)	cytotoxicity at 70.5 h [%]
Cc1ccc(C)c(CSc2nnc(C(N)C(C)C)o2)c1 (stereo not drawn)	-9.25
O=C(NC1CCCC1)[C@H]1C[C@H]2OCC[C@H]2N(Cc2ccoc2)C1	-4.07
CC(=O)N1CCC(c2nc3ccc(-c4cccc(F)c4)cn3n2)CC1	-9.34
Cc1ccc(NC(=O)N2CCCC(N(C)C)C2)c(Br)c1 (stereo not drawn)	-3.97
CCn1c(CC2CCN(C(=O)C3CNCCO3)CC2)nn(C)c1=O (stereo not drawn)	-16.2
O=C(c1cccs1)N1CCN(C(=O)c2ncoc2-c2ccco2)CC1	5.95
CC(OCC(F)(F)F)C(=O)NCc1ccc(-n2cncn2)nc1 (stereo not drawn)	-12.1
CCCN(C)C(=O)c1cc(S(=O)(=O)NCC)ccc1C	-1.03
NC(=O)NC(=O)CCN1C(=O)CC(Cc2ccc(F)cc2)C1=O (stereo not drawn)	-13.2
CCc1nc(C)sc1CN(Cc1ccncc1)C1CCN(C)CC1	-6.03
O=C1NC2(CCN(C(=O)c3ccnnc3)CC2)CC1c1ccccc1 (stereo not drawn)	22.9
c1cncc(CN2CCCC(Nc3ncnc4c3CCNCC4)C2)c1 (stereo not drawn)	-11.7
O=C1NCC2(CCCN(Cc3cccnc3)C2)Oc2ccccc21 (stereo not drawn)	-7.07
CN1CCC(CNC(=O)c2cccc(NC(N)=O)c2)c2ccccc21 (stereo not drawn)	-2.27
COC(=O)CCN1CCCC1c1ccccc1Cl (stereo not drawn)	-6.47
CCn1cnnc1CNC(=O)N(C)C(C)c1cccs1 (stereo not drawn)	-0.961
CCc1nc(C2CCCN(C(=O)c3cccc4c3ccn4C)C2)no1 (stereo not drawn)	-4.32
Cc1nn(Cn2ccc(C(=O)N3CCOCC3)n2)c(C)c1Cl	-9.86
O=S(=O)(CCCS(=O)(=O)c1ccc2c(c1)OCCCO2)c1ccccc1	-7.8
O=C(CN1CC(c2nc(C3CC3)no2)C1)N1CCOCC1	-17.5
COCC(=O)N(Cc1cccnc1)CC1CCN(C2CCCC2)CC1	1.31

Structure (SMILES)	cytotoxicity at 70.5 h [%]
CN1CCN(c2nc(O)cc(Cc3ccccc3F)n2)CC1	-4.68
CCCn1nc(C)c(C(=O)N[C@@H]2CC[C@@H](N3CCCC3)[C@@H]2O)c1C	-6.2
COCCC1CCCCN1C(=O)c1coc(COc2ccccc2F)n1 (stereo not drawn)	-1.11
O=C(NCc1ccccc1Cn1cncn1)C1CCC1	-4.18
CCC1(C(=O)O)CCCN(CCOCc2ccccc2)C1 (stereo not drawn)	-9.39
CN1CCN(c2nsc(-c3cccnc3)c2C#N)CC1	-4.14
c1ncc(CN2CC(Cc3nccc4cc[nH]c34)C2)cn1	-1.22
CCN(CC)c1ncccc1CNC(=O)c1cnn(CC)c1	-3.9
COc1c(C2CCCN2C(=O)c2scnc2C)c(C)nn1C (stereo not drawn)	-10.9
CC(CC1CC1)NCCCN1CCCN(C)CC1 (stereo not drawn)	7.35
O=C(Nc1cccnc1-n1cc(Cl)cn1)C1CCCCC1	-26.8
COCCN1CCC(CN(CC2CCCO2)C(=O)CNC(C)=O)CC1 (stereo not drawn)	-1.99
Cc1ccc(C)c(C(=O)Nc2ccc(OC3CCN(C)CC3)cc2)c1	-6.52
Cc1nc(CNC(=O)c2ccc3c(c2)nc(N2CCOCC2)n3C)cs1	-5.03
CCC(C)(NCC(=O)N(c1ccccc1)C(C)C)c1nc(C)cs1 (stereo not drawn)	2.38
O=C(c1cc[nH]n1)N1CCN(C(c2ccccc2)C(F)(F)F)CC1 (stereo not drawn)	-8.27
CN(Cc1ccco1)Cc1cncc2c1CCN(S(C)(=O)=O)C2	-8.46
Cc1ccc(OCC2CCCN(c3nc(CO)cs3)C2)cc1 (stereo not drawn)	-0.763
Cc1cc(N(C)C)nc(C2(C)CCCN2CC(N)=O)n1 (stereo not drawn)	-2.11
CCOc1ncccc1C(=O)N1CCCC(c2nncn2C)C1 (stereo not drawn)	-3.42
CS(=O)(=O)CCn1ccc(NC(=O)Cc2cccc(Cl)c2)n1	-0.645

Structure (SMILES)	cytotoxicity at 70.5 h [%]
CCOC(=O)Cc1n[nH]c(-c2cncc(Br)c2)n1	7.76
CCS(=O)(=O)N1CCC(c2nnc(CN3CCCCC3)n2C)CC1	-3.65
CC(c1ccccc1Cl)N(C)Cc1nc2c(cnn2C)c(=O)[nH]1 (stereo not drawn)	-2.36
CCn1nc(C)c2c1cnn2CCNS(=O)(=O)c1cccs1	4.54
CCn1ccnc1CN(C)Cc1nc(Cc2cccc(F)c2)no1	11.1
CNS(=O)(=O)c1cccc(C(C)NCc2ccc(F)c(F)c2)c1 (stereo not drawn)	-6.64
CC(C)n1cnnc1CN(C)C(=O)c1ccccc1N1CCOCC1	9.11
Cc1nc(-c2ccc(C(=O)O)cc2)cc(C2CCN(C(C)C)CC2)n1	12.2
Cc1ncncc1C(=O)N1CCC(O)(CN(C)Cc2ccc(F)cc2)C1 (stereo not drawn)	-5.31
CC(C)(C(=O)NCC(=O)N1CCCC1)c1ccccc1F	3.99
COCC1CC2(CCN(C(=O)c3cc(C)oc3C)CC2)CN1C(C)C (stereo not drawn)	0.799
N#Cc1ccc(F)c(CN2CCCCC2Cn2cccn2)c1 (stereo not drawn)	0.631
CC(C)Oc1ccc(CN2CCC(c3n[nH]c4ncccc34)CC2)cc1	21.4
COCc1nc(Cn2ncn3cccc3c2=O)no1	-0.912
Cn1cc(N2CCC(NC(=O)c3ccccc3F)C2=O)cn1 (stereo not drawn)	-1.23
COCCN1CCc2cc(C(=O)O)c(NCC3CC3)nc2CC1	22.8
Cc1cc(C)n(C2CCCN(C(=O)c3ccc(N(C)C)nc3)C2)n1 (stereo not drawn)	-2.57
COCCNC(=O)C(C)S(=O)(=O)c1ccc(OC)cc1 (stereo not drawn)	6.85
COc1ccc(CN2CCOC[C@H](OCCC(C)C)C2)cc1	-4.37
O=C(N1CCCC1)N1CCC2(CC(=O)N(c3ccc4c(c3)OCO4)C2)C1 (stereo not drawn)	-2.04
CCOC(=O)C1(Cc2ccccc2-c2ccccc2OC)CCNCC1	11

Structure (SMILES)	cytotoxicity at 70.5 h [%]
COCCC1(C(=O)NCCc2nncn2C2CC2)CCC1	-13.5
CNC(=O)N1CC[C@@H]2CN(CCc3cccc(OC)c3)S(=O)(=O)[C@@H]2CC1	-0.824
Cn1ccc(C(=O)N2CCCC2c2cc(CO)[nH]n2)n1 (stereo not drawn)	-2.72
Cc1cnn(C2CN(CC(=O)NCCCc3ccccc3)C2)c1	24.2
Cc1ccc(NC(=O)C2CCc3ccccc3N2)cc1 (stereo not drawn)	15.2
COCC1CN(C(=O)C2=CCCC2)Cc2cnn(CC3CC3)c21 (stereo not drawn)	-2.82
COCc1nc(N(C)C/C=C/c2ccccc2)c2cnn(C)c2n1	-8.43
Cc1noc(C)c1CCc1nc(C2CCOC2)no1 (stereo not drawn)	-11.1
Cn1cnnc1-c1ccnc(NCc2ccccc2)c1	-6.07
CN(CC(N)=O)Cc1c(Cl)ccc2cccnc12	-2.22
Cc1cnn(CC2CCCCN2C(=O)Cc2c(C)nn(C)c2C)c1 (stereo not drawn)	-3.41
CCn1cnnc1CNC(=O)N(C)Cc1cccc(Cl)c1Cl	-6.25
Fc1cnc(N2CC[C@@H]3OC(COCc4cccnc4)CC[C@@H]32)nc1 (stereo partly drawn)	-4.57
COc1ccc(C2CCCN2S(=O)(=O)N(C)C)cc1 (stereo not drawn)	-6.59
Cn1ccc(NC(=O)CN2C[C@H]3CC[C@@H]2CN(S(C)(=O)=O)C3)n1	0.433
CCS(=O)(=O)N1CCC(c2nnc(C(F)(F)F)o2)CC1	5.3
CC(C)c1ocnc1C(=O)NC(c1nnc2n1CCNCC2)C(C)C (stereo not drawn)	-16.6
Cc1nnc(CN2CCCC2c2cccc(Br)c2)o1 (stereo not drawn)	-4.5
CC(C)C1CN(C(=O)Nc2cnn(CC(F)F)c2)CCS1 (stereo not drawn)	5.93
Cn1cc(C[C@H]2[C@H](O)CCN2C(=O)C2CCOCC2)cn1	-7.24
